The text below walks through data of ChEMBL document CHEMBL5465560, “Selectivity Literature for EUbOPEN Chemogenomic Library” (2024).

The target of assay [1] is Mitogen-activated protein kinase kinase kinase 20 (Homo sapiens) (UniProt Q9NYL2). The assay is described as follows: Selectivity interaction (LanthaScreen Eu Kinase Binding Assay) EUB0001632a MAP3K20. The following applies: at 10 µM.
The target in assay [2] is Protein kinase C theta type (Homo sapiens, UniProt Q04759). The assay is described as follows: Selectivity interaction (KinomeScan (DiscoverX)) EUB0000595a PRKCQ. The note with it: at 10 µM.
Protein kinase C theta type, sequence (Q04759 whole entry, looked up): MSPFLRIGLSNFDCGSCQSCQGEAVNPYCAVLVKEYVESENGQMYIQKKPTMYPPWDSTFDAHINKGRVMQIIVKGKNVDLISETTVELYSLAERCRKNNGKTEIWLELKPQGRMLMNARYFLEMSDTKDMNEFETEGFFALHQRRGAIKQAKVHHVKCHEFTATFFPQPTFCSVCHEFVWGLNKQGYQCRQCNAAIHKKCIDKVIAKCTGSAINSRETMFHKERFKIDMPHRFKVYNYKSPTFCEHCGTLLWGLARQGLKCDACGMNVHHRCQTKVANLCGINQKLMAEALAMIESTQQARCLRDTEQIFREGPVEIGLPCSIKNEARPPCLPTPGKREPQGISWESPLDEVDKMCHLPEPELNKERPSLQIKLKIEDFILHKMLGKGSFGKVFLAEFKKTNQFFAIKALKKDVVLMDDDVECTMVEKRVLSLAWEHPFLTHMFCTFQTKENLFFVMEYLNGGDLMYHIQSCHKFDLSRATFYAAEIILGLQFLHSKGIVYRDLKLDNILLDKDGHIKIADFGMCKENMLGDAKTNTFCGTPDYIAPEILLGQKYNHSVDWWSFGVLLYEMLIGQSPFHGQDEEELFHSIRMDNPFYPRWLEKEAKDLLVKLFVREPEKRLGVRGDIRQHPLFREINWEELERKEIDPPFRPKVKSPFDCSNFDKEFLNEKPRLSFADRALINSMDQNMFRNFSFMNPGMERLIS
Assay [3] deals with Fibroblast growth factor receptor 3 (Homo sapiens), P22607 [G697C]. The assay is described as follows: (§1) Selectivity interaction (KinomeScan (DiscoverX)) EUB0001619a FGFR3. The following applies: at 1 µM.
Assay [4] deals with Fibroblast growth factor receptor 3 (Homo sapiens, UniProt P22607). The description is as §1. The following applies: at 1 µM.
Fibroblast growth factor receptor 3, sequence (P22607 23-806 limits assumed): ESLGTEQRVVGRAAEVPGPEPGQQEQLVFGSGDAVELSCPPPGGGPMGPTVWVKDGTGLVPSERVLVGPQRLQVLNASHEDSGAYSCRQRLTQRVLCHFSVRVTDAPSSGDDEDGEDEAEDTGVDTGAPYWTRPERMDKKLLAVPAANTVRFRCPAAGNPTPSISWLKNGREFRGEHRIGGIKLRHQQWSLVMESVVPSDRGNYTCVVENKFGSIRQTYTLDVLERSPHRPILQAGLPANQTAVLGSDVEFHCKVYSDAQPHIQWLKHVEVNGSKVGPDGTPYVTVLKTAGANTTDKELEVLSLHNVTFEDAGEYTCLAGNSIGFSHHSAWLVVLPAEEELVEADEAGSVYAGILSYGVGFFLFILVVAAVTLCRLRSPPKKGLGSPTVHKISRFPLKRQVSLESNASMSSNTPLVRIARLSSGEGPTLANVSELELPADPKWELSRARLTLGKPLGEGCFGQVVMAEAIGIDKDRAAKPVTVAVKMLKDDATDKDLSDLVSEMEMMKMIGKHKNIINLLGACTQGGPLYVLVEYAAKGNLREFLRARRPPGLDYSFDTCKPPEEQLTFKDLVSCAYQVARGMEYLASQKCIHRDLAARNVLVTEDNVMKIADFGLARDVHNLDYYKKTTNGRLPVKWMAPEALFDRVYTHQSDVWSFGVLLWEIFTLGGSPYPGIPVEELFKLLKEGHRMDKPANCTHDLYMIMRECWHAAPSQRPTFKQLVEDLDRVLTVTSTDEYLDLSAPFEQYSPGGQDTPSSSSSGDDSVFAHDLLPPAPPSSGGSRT
The next assay concerns the target D(2) dopamine receptor (Homo sapiens, UniProt P14416). The assay is described as follows: Selectivity interaction (Eurofins CEREP Diversity Profile (receptors and ion channels)) EUB0000279b DRD2. The following applies: at 10 µM.
The target of assay [5] is Activin receptor type-1-like (Homo sapiens) (UniProt P37023). The assay is described as follows: Selectivity interaction (KinomeScan (DiscoverX)) EUB0000666a ACVRL1. The following applies: at 10 µM.
Activin receptor type-1-like (Homo sapiens), sequence (P37023 whole entry): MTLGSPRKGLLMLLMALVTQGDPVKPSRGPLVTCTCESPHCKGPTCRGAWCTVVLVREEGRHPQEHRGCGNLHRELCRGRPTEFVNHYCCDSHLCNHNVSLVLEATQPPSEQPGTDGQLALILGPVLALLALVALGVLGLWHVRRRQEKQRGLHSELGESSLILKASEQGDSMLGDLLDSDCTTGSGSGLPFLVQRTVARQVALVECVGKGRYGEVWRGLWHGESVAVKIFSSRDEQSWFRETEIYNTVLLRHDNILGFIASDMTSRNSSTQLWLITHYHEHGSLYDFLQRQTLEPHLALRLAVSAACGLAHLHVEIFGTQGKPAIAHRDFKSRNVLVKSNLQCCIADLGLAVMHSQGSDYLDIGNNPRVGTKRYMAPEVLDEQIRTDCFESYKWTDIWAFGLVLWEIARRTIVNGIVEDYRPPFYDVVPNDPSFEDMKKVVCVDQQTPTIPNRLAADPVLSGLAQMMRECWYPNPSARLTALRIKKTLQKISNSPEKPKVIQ
Assay [6] has as its target 5'-AMP-activated protein kinase catalytic subunit alpha-1 (Homo sapiens, UniProt Q13131). The assay is described as follows: Selectivity interaction (ActivX KiNativ screen (kinase selectivity in THP-1 cell lysates)) EUB0000639a PRKAA1. Type of assay: subcellular. The note with it: lysate, at 5 µM.
A further assay deals with Aurora kinase B (Homo sapiens, UniProt Q96GD4). Put plainly: Selectivity interaction (ActivX KiNativ screen (kinase selectivity in THP-1 cell lysates)) EUB0000639a AURKB. In kind it is subcellular. The following applies: lysate, at 0.04 µM.
Aurora kinase B, sequence (Q96GD4 whole entry): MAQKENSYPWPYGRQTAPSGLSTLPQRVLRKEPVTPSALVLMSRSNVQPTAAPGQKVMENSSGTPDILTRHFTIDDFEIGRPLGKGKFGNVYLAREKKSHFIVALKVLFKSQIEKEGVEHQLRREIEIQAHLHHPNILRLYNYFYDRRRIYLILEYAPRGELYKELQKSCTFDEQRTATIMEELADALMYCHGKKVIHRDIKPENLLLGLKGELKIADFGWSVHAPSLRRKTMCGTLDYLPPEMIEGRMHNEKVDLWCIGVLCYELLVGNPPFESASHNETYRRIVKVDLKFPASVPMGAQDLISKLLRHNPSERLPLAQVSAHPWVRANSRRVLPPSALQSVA
The test system of assay [7] is T1, Receptor-type tyrosine-protein kinase FLT3 (Homo sapiens), P36888 [D835V].
T1 sequence (whole entry): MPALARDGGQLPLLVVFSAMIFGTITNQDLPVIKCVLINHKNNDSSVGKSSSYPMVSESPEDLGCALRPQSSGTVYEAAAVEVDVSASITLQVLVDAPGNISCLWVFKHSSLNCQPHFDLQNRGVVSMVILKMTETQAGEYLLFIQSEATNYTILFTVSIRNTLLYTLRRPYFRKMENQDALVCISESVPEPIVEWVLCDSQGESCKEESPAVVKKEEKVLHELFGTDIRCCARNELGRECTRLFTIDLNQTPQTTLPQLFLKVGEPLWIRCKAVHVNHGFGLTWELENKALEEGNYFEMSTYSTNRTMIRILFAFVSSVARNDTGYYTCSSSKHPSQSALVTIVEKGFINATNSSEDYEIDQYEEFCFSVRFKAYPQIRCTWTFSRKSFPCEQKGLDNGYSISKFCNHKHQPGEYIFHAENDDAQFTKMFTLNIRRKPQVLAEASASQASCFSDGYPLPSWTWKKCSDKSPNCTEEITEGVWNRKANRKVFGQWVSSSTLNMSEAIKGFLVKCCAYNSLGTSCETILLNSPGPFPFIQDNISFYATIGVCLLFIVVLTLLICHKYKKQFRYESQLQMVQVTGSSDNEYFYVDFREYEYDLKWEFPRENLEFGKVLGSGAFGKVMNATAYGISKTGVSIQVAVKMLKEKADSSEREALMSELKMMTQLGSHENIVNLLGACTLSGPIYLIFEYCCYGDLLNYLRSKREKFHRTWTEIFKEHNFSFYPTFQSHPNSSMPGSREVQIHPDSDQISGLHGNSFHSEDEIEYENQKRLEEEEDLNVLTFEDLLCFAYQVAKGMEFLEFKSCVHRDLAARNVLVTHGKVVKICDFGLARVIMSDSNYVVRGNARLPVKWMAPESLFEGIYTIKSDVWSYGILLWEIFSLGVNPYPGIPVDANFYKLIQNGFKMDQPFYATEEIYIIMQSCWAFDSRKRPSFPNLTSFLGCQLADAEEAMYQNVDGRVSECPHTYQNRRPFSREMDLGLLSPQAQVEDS
Put plainly: (§2) Selectivity interaction (KinomeScan (DiscoverX)) EUB0000311b FLT3. The following applies: at 1 µM.

For assay [8], the target named is Receptor-type tyrosine-protein kinase FLT3 (Homo sapiens) (UniProt P36888). The assay is described as §2. The following applies: at 1 µM.
For assay [9], the target named is T2, Phosphatidylinositol 5-phosphate 4-kinase type-2 gamma (Homo sapiens) (UniProt Q8TBX8).
T2 sequence (whole entry): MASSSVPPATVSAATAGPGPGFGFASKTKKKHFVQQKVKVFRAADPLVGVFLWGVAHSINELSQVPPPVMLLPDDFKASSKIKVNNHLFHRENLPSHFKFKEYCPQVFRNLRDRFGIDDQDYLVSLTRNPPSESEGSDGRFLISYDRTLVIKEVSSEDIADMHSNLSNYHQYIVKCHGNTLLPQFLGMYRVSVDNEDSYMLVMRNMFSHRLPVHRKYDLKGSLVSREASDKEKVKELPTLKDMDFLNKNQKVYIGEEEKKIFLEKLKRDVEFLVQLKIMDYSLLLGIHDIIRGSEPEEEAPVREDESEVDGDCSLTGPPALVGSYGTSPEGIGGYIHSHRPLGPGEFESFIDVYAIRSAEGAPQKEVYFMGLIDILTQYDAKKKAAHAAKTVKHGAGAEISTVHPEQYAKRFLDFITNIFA
Put plainly: Selectivity interaction (KinomeScan (DiscoverX)) EUB0001049a PIP4K2C. The following applies: at 1 µM.

Assay [10] concerns the target Glycogen synthase kinase-3 beta (Homo sapiens, UniProt P49841). The assay is described as follows: Selectivity interaction (KinomeScan (DiscoverX)) EUB0000655a GSK3B. The note with it: at 10 µM.
In assay [11] the target is Tyrosine-protein kinase Fes/Fps (Homo sapiens) (UniProt P07332). Put plainly: Selectivity interaction (KinomeScan (DiscoverX)) EUB0000618a FES. The following applies: at 10 µM.
Tyrosine-protein kinase Fes/Fps (Homo sapiens), sequence (P07332 whole entry): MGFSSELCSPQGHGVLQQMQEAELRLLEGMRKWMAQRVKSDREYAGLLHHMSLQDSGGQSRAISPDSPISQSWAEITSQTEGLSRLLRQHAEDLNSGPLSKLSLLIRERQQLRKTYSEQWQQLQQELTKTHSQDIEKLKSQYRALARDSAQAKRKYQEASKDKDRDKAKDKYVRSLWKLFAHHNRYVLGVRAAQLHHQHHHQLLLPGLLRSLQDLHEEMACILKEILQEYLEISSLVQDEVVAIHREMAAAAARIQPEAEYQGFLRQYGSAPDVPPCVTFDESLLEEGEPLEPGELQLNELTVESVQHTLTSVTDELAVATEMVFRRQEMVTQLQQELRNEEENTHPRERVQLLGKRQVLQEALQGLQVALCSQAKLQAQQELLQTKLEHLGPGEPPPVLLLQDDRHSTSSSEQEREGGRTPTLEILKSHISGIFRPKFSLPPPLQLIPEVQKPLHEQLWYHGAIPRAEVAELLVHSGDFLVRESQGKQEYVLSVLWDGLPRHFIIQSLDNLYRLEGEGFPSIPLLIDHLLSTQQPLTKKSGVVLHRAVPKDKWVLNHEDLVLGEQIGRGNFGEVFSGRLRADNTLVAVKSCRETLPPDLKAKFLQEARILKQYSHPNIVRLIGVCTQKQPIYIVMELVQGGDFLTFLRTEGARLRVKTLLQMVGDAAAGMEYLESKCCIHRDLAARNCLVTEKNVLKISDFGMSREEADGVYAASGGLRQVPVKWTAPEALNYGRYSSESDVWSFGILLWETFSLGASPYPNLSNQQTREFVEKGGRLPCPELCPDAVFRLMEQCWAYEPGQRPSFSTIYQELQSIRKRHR
For assay [12], the target named is T3, Mitogen-activated protein kinase kinase kinase 3 (Homo sapiens) (UniProt Q99759).
T3 sequence (whole entry): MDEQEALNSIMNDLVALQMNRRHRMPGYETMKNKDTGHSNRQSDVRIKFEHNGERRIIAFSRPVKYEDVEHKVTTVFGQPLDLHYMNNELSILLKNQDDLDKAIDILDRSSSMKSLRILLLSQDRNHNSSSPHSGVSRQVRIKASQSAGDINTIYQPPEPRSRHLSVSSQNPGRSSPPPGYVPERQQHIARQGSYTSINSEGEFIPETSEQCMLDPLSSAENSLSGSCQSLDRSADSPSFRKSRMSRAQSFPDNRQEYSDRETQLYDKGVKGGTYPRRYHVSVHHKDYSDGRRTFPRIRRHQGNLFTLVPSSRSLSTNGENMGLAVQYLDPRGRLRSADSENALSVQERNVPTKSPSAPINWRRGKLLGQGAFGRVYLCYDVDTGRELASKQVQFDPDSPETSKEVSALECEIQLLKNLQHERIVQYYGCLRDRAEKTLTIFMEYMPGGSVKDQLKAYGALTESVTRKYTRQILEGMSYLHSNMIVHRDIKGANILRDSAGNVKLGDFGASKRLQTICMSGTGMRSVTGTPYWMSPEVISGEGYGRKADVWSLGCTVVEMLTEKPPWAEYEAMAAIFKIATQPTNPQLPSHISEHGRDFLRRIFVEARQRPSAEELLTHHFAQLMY
Put plainly: Selectivity interaction (KinomeScan (DiscoverX)) EUB0000092b MAP3K3. The following applies: at 10 µM.

The target of assay [13] is Tyrosine-protein kinase Lyn (Homo sapiens, UniProt P07948). Put plainly: Selectivity interaction (Millipore kinase profiler) EUB0000124b LYN. The note with it: at 10 µM.
Tyrosine-protein kinase Lyn, sequence (P07948 2-512 limits assumed): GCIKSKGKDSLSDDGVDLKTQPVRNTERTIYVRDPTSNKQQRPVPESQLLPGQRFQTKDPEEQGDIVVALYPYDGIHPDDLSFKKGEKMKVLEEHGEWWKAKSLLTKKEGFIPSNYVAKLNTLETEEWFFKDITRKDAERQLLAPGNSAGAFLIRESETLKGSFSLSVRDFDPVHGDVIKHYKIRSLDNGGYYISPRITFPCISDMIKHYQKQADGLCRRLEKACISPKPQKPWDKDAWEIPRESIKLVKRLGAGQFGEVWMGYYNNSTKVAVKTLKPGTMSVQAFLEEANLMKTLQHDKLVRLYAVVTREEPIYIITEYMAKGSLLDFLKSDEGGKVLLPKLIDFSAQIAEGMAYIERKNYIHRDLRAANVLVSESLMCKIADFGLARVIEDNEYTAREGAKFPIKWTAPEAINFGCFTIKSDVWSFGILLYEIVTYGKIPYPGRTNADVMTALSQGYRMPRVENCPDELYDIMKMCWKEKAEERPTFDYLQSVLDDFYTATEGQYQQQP

D(2) dopamine receptor, sequence (P14416 whole entry): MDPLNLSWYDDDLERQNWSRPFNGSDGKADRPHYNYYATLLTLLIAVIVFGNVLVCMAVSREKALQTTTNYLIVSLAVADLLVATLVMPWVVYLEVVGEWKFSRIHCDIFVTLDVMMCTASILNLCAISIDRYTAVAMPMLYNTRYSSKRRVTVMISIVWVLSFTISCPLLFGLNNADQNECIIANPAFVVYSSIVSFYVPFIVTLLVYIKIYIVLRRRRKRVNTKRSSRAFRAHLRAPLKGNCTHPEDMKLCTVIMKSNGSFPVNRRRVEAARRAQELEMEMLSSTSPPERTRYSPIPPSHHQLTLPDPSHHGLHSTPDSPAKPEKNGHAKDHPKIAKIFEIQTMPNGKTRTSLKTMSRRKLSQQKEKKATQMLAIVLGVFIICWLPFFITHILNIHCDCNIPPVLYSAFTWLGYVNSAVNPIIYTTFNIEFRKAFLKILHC
Mitogen-activated protein kinase kinase kinase 20 (Homo sapiens), sequence (Q9NYL2 2-800 limits assumed): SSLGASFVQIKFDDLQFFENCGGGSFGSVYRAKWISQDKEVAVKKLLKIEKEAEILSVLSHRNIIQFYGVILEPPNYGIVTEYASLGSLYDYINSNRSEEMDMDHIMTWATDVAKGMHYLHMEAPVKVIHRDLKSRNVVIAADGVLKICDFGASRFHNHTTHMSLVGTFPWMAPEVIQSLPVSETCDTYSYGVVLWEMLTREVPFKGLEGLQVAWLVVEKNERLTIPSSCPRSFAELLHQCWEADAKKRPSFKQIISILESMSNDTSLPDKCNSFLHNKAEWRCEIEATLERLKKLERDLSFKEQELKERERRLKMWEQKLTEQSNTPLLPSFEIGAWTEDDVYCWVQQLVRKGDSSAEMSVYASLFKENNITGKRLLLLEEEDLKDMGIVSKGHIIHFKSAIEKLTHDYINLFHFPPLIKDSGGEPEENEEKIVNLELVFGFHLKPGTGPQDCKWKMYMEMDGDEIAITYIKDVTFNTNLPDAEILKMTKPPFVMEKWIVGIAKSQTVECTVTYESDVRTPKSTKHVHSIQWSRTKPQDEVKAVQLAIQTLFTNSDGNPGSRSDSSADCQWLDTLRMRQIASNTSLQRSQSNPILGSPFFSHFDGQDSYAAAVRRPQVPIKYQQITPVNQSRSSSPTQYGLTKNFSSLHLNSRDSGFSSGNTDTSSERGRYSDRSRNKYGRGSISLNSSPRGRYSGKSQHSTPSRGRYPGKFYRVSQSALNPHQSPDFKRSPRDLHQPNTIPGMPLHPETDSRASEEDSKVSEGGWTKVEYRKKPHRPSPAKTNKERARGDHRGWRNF

On to `Cn1cc(-n2cnc3c(NCc4nc5cc(Cl)c(Cl)cc5[nH]4)nc(N4CCOCC4)nc32)cn1`, for which the % of inhibition in assay [1] is -9.9%.
In assay [2], `COCC(=O)NC/C=C/c1ccc2ncnc(Nc3ccc(Oc4ccc(C)nc4)c(C)c3)c2c1` [CP-724714] registered a % of control of 100%.
In the case of `N#Cc1cccc(-c2c[nH]c3ncnc(N4CCOCC4)c23)c1`, the % of control in [3] and in [4] was 100% throughout.
As to `CC(=O)c1cc(-c2ccccc2OCC2CC2)c2ncccn12`, the % of control on D(2) dopamine receptor worked out at 92%.
Take `O=C(NOC[C@H](O)CO)c1ccc(F)c(F)c1Nc1ccc(I)cc1F`: the % of control in assay [5] came out at 100%.
With `CC[C@@H]1[C@H](F)C(=O)N[C@@H]1COc1nccc2cc(C(N)=O)c(OC)cc12` [ZIMLOVISERTIB], the % of inhibition is 21.9% in [6] and -1.3% at Aurora kinase B.
For the compound `CCc1ccccc1C(=O)Nc1n[nH]c2c(C)c(F)c(C3C(C#N)=C(C)N(C)C(C)=C3C#N)cc12` [BAY-3827], the values for the % of control in [7] and in [8] were 3.2% and 16%, respectively.
In turn, `COc1cc(Nc2nc(C)cc(-c3cnn4nc(OC)ccc34)n2)cc(C(F)(F)F)c1` had a % of control in assay [9] of 100%.
As for `CN(C)CCOc1ccc(-c2nc(-c3ccncc3)c(-c3ccc4c(c3)CC/C4=N\O)[nH]2)cc1`, in [10], the % of control is 81%.
In assay [11], `O[C@H]1CC[C@H](Nc2ncc3nc(Nc4c(F)cc(F)cc4F)n([C@H]4CCOC4)c3n2)CC1` registered a % of control of 100%.
In turn, `CCC(=O)N1CCN(c2ccc(-n3c(=O)ccc4cnc5ccc(-c6cnc7ccccc7c6)cc5c43)cc2C(F)(F)F)CC1` gave a % of control in [12] of 75%.
On to `CC(=O)Nc1cccc(-n2c(=O)n(C3CC3)c(=O)c3c(Nc4ccc(I)cc4F)n(C)c(=O)c(C)c32)c1`, for which the % of control in assay [13] is 95%.
